Source: patent publication US20200255828A1, “METHODS AND COMPOSITIONS FOR ALTERING FUNCTION AND STRUCTURE OF CHROMATIN LOOPS AND/OR DOMAINS” (THE BROAD INSTITUTE, INC., priority 2017, published 2020)

Tests used:
HCT-116 RAD21-mAC cells = experiment: In situ Hi-C: APA for cohesin-independent links between superenhancers; type: cell-based, human
Description: Applicants first annotated loops in our maps for auxin-treated RAD21-mAC cells using default HiCCUPS parameters for 5, 10, and 25 kb resolutions (Durand et al., 2016b; Rao et al., 2014) with the additional requirement that the peak pixel show […] 4.5-fold enrichment over local expected (in order to remove as many false positives as possible due to rearrangements and assembly issues, see above). Using this procedure, Applicants annotated 81 loops in treated RAD21-mAC cells. […] The false discovery rate for HiCCUPS is much higher in treated cells because the number of true positives is dramatically lower. […] Applicants also noticed that the anchors involved in these 15 loops were often forming long-range loops at distances of tens of megabases and hundreds of megabases. Applicants reasoned that HiCCUPS using default parameters for loop detection was missing many of these extremely long-range loops because of the extra stringency of the HiCCUPS lambda chunking procedure for multiple hypothesis testing for pixels with low counts (i.e. pixels far off the diagonal).
More specifically, Applicants annotated loops by running HiCCUPS at 50 and 100 kb resolutions with the following parameters: p=2,1; w=4,2; fdr=10%, 10%. Applicants additionally filtered loops that were within 5 Mb of the diagonal, had less than a 2-fold observed/expected for any of the local expected, and had fewer than 3 pixels clustered into the peak pixels (see section VI.a.5 of Rao et al., 2014). This annotation yielded 88 loops. […] Combining these 46 loops with the 15 loops annotated with high resolution HiCCUPS, Applicants obtained a final curated list of 61 intrachromosomal cohesin-independent loops.
To annotate these interchromosomal links between pairs of cohesin-independent loop anchors, Applicants used HiCCUPS to calculate local enrichments at 100 kb resolution for all possible interchromosomal pairs of cohesin-independent loop anchors. Applicants then identified enriched focal interchromosomal interactions by filtering for links that were enriched at least 5.5-fold over local background (empirically chosen to ensure a <10% false discovery rate). Using this procedure, Applicants identified 203 interchromosomal cohesin-independent links. This likely underestimates the true number of interchromosomal cohesin-independent links, as evidenced by FIG. SA.
Applicants analyzed the change in strength of cohesin-independent links after auxin treatment by using APA at 100 kb resolution.
Applicants also analyzed induction of cohesin-independent links across an auxin treatment and withdrawal time course. This analysis was performed as above with the cohesin-associated loops and loop domains, but at 100 kb resolution instead of 10 kb resolution and for both our 61 intrachromosomal links and our 203 interchromosomal links. […] Similar results were seen upon performing the time course APA at 100 kb resolution using all intrachromosomal pairs of the 47 superenhancer overlapping anchors in the 88-loop automated list from above (FIG. 11E).

CTCF = experiment: ChIP-Seq for CTCF with and without auxin; type: cell-based, human
Experimental: ChIP-Seq for H3K27Ac, H3K4me1, H3K4me3, H3K36me3, H3K27me3, H3K9me3, H4K16Ac, H4K20me3, H3K79me2, and H2.AZ was performed using a native ChIP-Seq protocol. Chromatin from untreated HCT-116 RAD21-mAC cells or cells treated for 6 hours with 500 uM IAA was digested with Mnase (Sigma) in digestion buffer (50 mM Tris-HCl, pH7.6, 1 mM CaCl2), 0.2% Triton X-100, butyrate 5 mM) for 5′ at 37° C. and dialyzed against RIPA buffer for 2 hrs at 4° C. Five microgram of respective antibody was incubated with 40 μl of Dynabeads Protein A (or G) for 40 min at room temperature. Antibody-bound beads were added to 500 μl of sonicated or Mnase-digested chromatin, incubated at 4° C. overnight, and washed twice with RIPA buffer, twice with RIPA buffer containing 0.3 M NaCl, twice with LiCl buffer (0.25 M LiCl, 0.5% Igepal-630, 0.5% sodium deoxycholate), once with TE (pH 8.0) plus 0.2% Triton X-100, and once with TE (pH 8.0). ChIP DNA was purified by phenol-chloroform extraction followed by ethanol precipitation. Libraries were prepped for Illumina sequencing and 50 bp single-end reads were sequenced on a HiSeq2000 or 2500 (Illumina). Applicants also performed ChIP-Seq for RAD21 and CTCF following the same protocol as above, except that cells were fixed with 1% formaldehyde for 10 minutes at 37° C. and fixation was quenched by the addition of glycine to a final concentration of 125 mM for 10 minutes. The fixed cells were sonicated using a Branson sonifier at amplitude 35%, 12 cycles of 20 seconds of sonication and 30 seconds of pause. Antibody was added to the sonicated chromatin as above and the samples were further processed as above. […]
All ChIP-Seq data was aligned to hg19 with BWA (Li and Durbin, 2010) (Li and Durbin, 2010) (Li and Durbin, 2010), deduplicated using PicardTools, and analyzed with MACS 2.0 (Liu, 2014). […]
Applicants calculated average signal over 5 kb bins across the entire genome and correlated signal between ChIP-Seq experiments before and after auxin treatment for each of CTCF, H3K27me3, H3K9me3, H3K4me1, H3K4me3 and H3K27Ac.

**Q.** How did the “strengthening of cohesin-independent links after auxin treatment” value (HCT-116 RAD21-mAC cells; APA at 100 kb resolution, intra and interchromosomal) turn out when `O=C(O)Cc1c[nH]c2ccccc12` [auxin, indole-3-acetic acid] was run?
**A.** ~2 fold

**Q.** And the “intrachromosomal APA score of cohesin-independent links, treated” value (HCT-116 RAD21-mAC cells; automatedly generated list, untreated 1.69)?
**A.** 2.75

**Q.** What about the “interchromosomal APA score of cohesin-independent links, treated” value (HCT-116 RAD21-mAC cells; automatedly generated list, untreated 2.29) of the same compound?
**A.** 3.64

**Q.** And the “intrachromosomal APA score of cohesin-independent links, treated” value (HCT-116 RAD21-mAC cells; manually curated list of 61 links, untreated 2.32)?
**A.** 4.02

**Q.** And the “interchromosomal APA score of cohesin-independent links, treated” value (HCT-116 RAD21-mAC cells; manually curated list of 203 links, untreated 3.02)?
**A.** 7.02

**Q.** What about the “CTCF peaks called after auxin treatment also called before auxin treatment” value (CTCF) of the same compound?
**A.** 96%

**Q.** And the “Spearman's r of ChIP-Seq signal before vs after auxin treatment, CTCF” value (CTCF; 5 kb bins genome-wide)?
**A.** 0.80

**Q.** And the “average enrichment at all CTCF binding sites called by ENCODE, treated cells” value (CTCF; untreated 10.89)?
**A.** 8.93
